Experimental data from PubChem BioAssay (NCI).
Where “and” joins values, the source holds several entries; their conditions need not be identical. Equal values may be shown once.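 96-well plates; 48 h exposure; 5 concentrations. Endpoints by linear interpolation between flanking doses. Not reached: highest tested concentration assigned. At the GI50, growth is halved. TGI: concentration producing complete growth inhibition.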

What was measured:
Assay in all cases: NCI tumour cell line growth inhibition, 48 h
[1] = test system: SK-MEL-5 melanoma
[2] = test system: K-562 leukemia
[3] = test system: HL-60(TB) leukemia
[4] = test system: A549 NSCLC
[5] = test system: HT29 colon
[6] = test system: SR leukemia
[7] = test system: MDA-MB-435
[8] = test system: HOP-62 NSCLC
[9] = test system: NCI-H226 lung
[10] = test system: SF-539 CNS

`Cc1ccc(Cl)cc1Nc1nc(C(F)(F)F)ccc1C(=O)Nc1cccc(C(F)(F)F)c1` gave a GI50 [1] of 2.18 µM, a TGI [1] of 4.5 µM and a GI50 [2] of 3.59 µM. For the same compound, the TGI [2] was > 100 µM, the GI50 [3] was 3.61 µM and the TGI [3] was 10.5 µM. For the same compound, the GI50 [4] was 2.93 µM, the TGI [4] was 11.7 µM and the GI50 [5] was 2.82 µM. The TGI [5] was 12.8 µM, the GI50 [6] was 3.41 µM and the TGI [6] was 30.3 µM. For the same compound, the GI50 [7] was 3.61 µM, the TGI [7] was 13.9 µM and the GI50 [8] was 2.69 µM. It also gave a TGI [8] of 10.3 µM, a GI50 [9] of 6 µM and a TGI [9] of 25.5 µM. The GI50 [10] was 3.95 µM and the TGI [10] was 14.1 µM.
`CCSc1oc(-c2ccccc2)nc1[P+](c1ccccc1)(c1ccccc1)c1ccccc1` gave a GI50 [1] of 0.164 µM, a TGI [1] of 0.315 µM and a GI50 [2] of 0.152 µM. For the same compound, the TGI [2] was 3.45 µM, the GI50 [3] was 0.149 µM and the TGI [3] was 0.469 µM. It also gave a GI50 [4] of 0.301 µM, a TGI [4] of 4.71 µM and a GI50 [5] of 0.238 µM. The TGI [5] was 2.33 µM, the GI50 [6] was 0.377 µM and the TGI [6] was 24.2 µM. The GI50 [7] was 0.308 µM, the TGI [7] was 1.12 µM and the GI50 [8] was 0.308 µM. It also gave a TGI [8] of 1.87 µM, a GI50 [9] of 0.286 µM and a TGI [9] of 1.86 µM. For the same compound, the GI50 [10] was 0.376 µM and the TGI [10] was 2.85 µM.
`COc1ccc(-c2oc(=O)ccc2C#Cc2cc(OC)c(OC)c(OC)c2)cc1O` showed a GI50 [1] of 7.55 µM, a TGI [1] of 26.6 µM and a GI50 [2] of 13.8 µM. The TGI [2] was > 100 µM, the GI50 [3] was 8.96 µM and the TGI [3] was 35.7 µM. For the same compound, the GI50 [4] was 39.5 µM, the TGI [4] was > 100 µM and the GI50 [5] was 37.9 µM. The TGI [5] was > 100 µM, the GI50 [6] was 2.75 µM and the TGI [6] was 33.5 µM. The GI50 [7] was 11.5 µM, the TGI [7] was 81.7 µM and the GI50 [8] was 18.5 µM. The TGI [8] was 87.4 µM, the GI50 [9] was 50.5 µM and the TGI [9] was > 100 µM. It also gave a GI50 [10] of 20 µM and a TGI [10] of 86.2 µM.
In the case of `Nc1[nH]c(=O)ncc1F`, the TGI [1] is reported as > 100 µM, the TGI [2] is reported as > 100 µM and the TGI [3] is reported as > 100 µM. For the same compound, the TGI [4] was > 100 µM, the TGI [5] was > 100 µM and the TGI [6] was > 100 µM. The TGI [7] was > 100 µM, the TGI [8] was > 100 µM and the TGI [9] was > 100 µM. The TGI [10] was > 100 µM.
For `O=C(O)c1c(O)c2cc(Br)ccc2oc1=O`, the TGI [1] was > 100 µM, the TGI [2] was > 100 µM and the TGI [3] was > 100 µM. For the same compound, the TGI [4] was > 100 µM, the TGI [5] was > 100 µM and the TGI [6] was > 100 µM. For the same compound, the TGI [7] was > 100 µM, the TGI [8] was > 100 µM and the TGI [9] was > 100 µM. The TGI [10] was > 100 µM.
`CCOC(=O)c1sc(-c2ccc(OS(=O)(=O)c3cccs3)c(C=O)c2)nc1C` showed a GI50 [1] of 1.56 µM, a TGI [1] of 3 µM and a GI50 [2] of 0.574 µM. The TGI [2] was > 100 µM, the GI50 [3] was 1.89 µM and the TGI [3] was 4.93 µM. For the same compound, the GI50 [4] was 2.3 µM, the TGI [4] was 6.72 µM and the GI50 [6] was 1.82 µM. The TGI [6] was > 100 µM, the GI50 [7] was 1.59 µM and the TGI [7] was 3.05 µM. It also gave a GI50 [9] of 1.88 µM, a TGI [9] of 4.93 µM and a GI50 [10] of 1.82 µM. The TGI [10] was 3.42 µM.
`Cn1nc(C(F)(F)F)c(-c2ccc(Cl)c(C(F)(F)F)c2)c1-c1ccc(OCc2ccc(Cl)cc2)cc1O` showed a GI50 [1] of 1.02 µM, a TGI [1] of 2.23 µM and a GI50 [2] of 1.84 µM. For the same compound, the TGI [2] was 7.47 µM, the GI50 [3] was 1.4 µM and the TGI [3] was 3.5 µM. For the same compound, the GI50 [4] was 1.66 µM, the TGI [4] was 6.16 µM and the GI50 [5] was 1.62 µM. It also gave a TGI [5] of 5.42 µM, a GI50 [6] of 2.06 µM and a TGI [6] of 7.34 µM. The GI50 [7] was 1.63 µM, the TGI [7] was 6.27 µM and the GI50 [8] was 1.58 µM. It also gave a TGI [8] of 6.04 µM, a GI50 [9] of 1.73 µM and a TGI [9] of 6.84 µM. The GI50 [10] was 1.65 µM and the TGI [10] was 5.95 µM.
In the case of `CCCS(=O)(=O)Nc1ccc(F)c(C(=O)c2c[nH]c3ncc(-c4ccc(Cl)cc4)cc23)c1F`, the GI50 [1] is reported as 0.471 µM and 1.85 µM, the TGI [1] is reported as 13.6 µM and > 10 µM and the GI50 [2] is reported as 4.32 µM and > 8.72 µM. The TGI [2] was 19.6 µM and > 10 µM, the GI50 [3] was 3.64 µM and > 10 µM and the TGI [3] was 12.2 µM and > 10 µM. The GI50 [4] was 3.46 µM and 6.38 µM, the TGI [4] was 25 µM and > 10 µM and the GI50 [5] was 0.0887 µM and 0.0812 µM. The TGI [5] was 9.55 µM and > 10 µM, the GI50 [6] was 2.1 µM and 2.92 µM and the TGI [6] was 13.9 µM and > 10 µM. For the same compound, the GI50 [7] was 0.107 µM and 0.153 µM, the TGI [7] was 8.86 µM and > 10 µM and the GI50 [8] was 7.39 µM and > 8.12 µM. The TGI [8] was 21.6 µM and > 10 µM, the GI50 [9] was 9.23 µM and > 5.91 µM and the TGI [9] was 36.7 µM and > 10 µM. For the same compound, the GI50 [10] was 3.91 µM and 4.51 µM and the TGI [10] was 17.1 µM and > 10 µM.
For `CC(=O)OCC1OC(OC2C(COC(C)=O)OC(OCCC[S-])C(OC(C)=O)C2OC(C)=O)C(OC(C)=O)C(OC(C)=O)C1OC(C)=O.[Au+].c1ccc(CN2[CH-]N(Cc3ccccc3)C(c3ccccc3)=C2c2ccccc2)cc1` (stereo unspecified), the GI50 [1] was 1.97 µM, the TGI [1] was 4.41 µM and the GI50 [2] was 3.27 µM. The TGI [2] was 14.5 µM, the GI50 [3] was 2.49 µM and the TGI [3] was 6.43 µM. The GI50 [4] was 4.29 µM, the TGI [4] was 25 µM and the GI50 [5] was 3.23 µM. The TGI [5] was 13.6 µM, the GI50 [6] was 2.61 µM and the TGI [6] was 20.6 µM. For the same compound, the GI50 [7] was 3.18 µM, the TGI [7] was 13.6 µM and the GI50 [8] was 3.75 µM. It also gave a TGI [8] of 18.2 µM, a GI50 [9] of 4.68 µM and a TGI [9] of 33 µM. The GI50 [10] was 4.46 µM and the TGI [10] was 17.6 µM.
In the case of `COc1cc(C)c(C(=O)O[C@H]2[C@H](O[C@H]3[C@@H](O)COC(O[C@H]4C[C@H]5[C@@H]6CC=C7C[C@@H](O)CC[C@]7(C)[C@H]6CC[C@]5(C)[C@H]4[C@H](C)C(=O)CCC(C)C)[C@@H]3OC(C)=O)OC[C@@H](O)[C@@H]2O)c(C)c1` (stereo partly specified), the GI50 [1] is reported as < 0.01 µM, the TGI [1] is reported as 0.0181 µM and the GI50 [2] is reported as < 0.01 µM. The TGI [2] was 7.47 µM, the GI50 [3] was 0.016 µM and the TGI [3] was 20 µM. For the same compound, the GI50 [4] was < 0.01 µM, the TGI [4] was 30.5 µM and the GI50 [5] was 0.157 µM. The TGI [5] was 15.7 µM, the GI50 [6] was < 0.01 µM and the TGI [6] was 21.1 µM. For the same compound, the GI50 [7] was < 0.01 µM, the TGI [7] was 0.13 µM and the GI50 [8] was 0.0125 µM. For the same compound, the TGI [8] was 3.65 µM, the GI50 [9] was 0.135 µM and the TGI [9] was 12.4 µM. The GI50 [10] was < 0.01 µM and the TGI [10] was 0.0137 µM.
`O=C1NC(=O)/C(=C/C=C/c2ccccc2)S1` gave a GI50 [1] of 2.58 µM, a TGI [1] of 22.5 µM and a GI50 [2] of 3.27 µM. For the same compound, the TGI [2] was > 100 µM, the GI50 [3] was 1.27 µM and the TGI [3] was 9.58 µM. The GI50 [4] was 11.1 µM, the TGI [4] was > 100 µM and the GI50 [5] was 12.1 µM. For the same compound, the TGI [5] was > 100 µM, the GI50 [6] was 0.597 µM and the TGI [6] was > 86.5 µM. The GI50 [7] was 5.46 µM, the TGI [7] was > 78.7 µM and the GI50 [8] was 1.37 µM. For the same compound, the TGI [8] was 33.1 µM, the GI50 [9] was 14 µM and the TGI [9] was > 80.8 µM. For the same compound, the GI50 [10] was 0.384 µM and the TGI [10] was 3.16 µM.
For `Nc1ccc(-c2nc3ccc4[nH]ncc4c3c3c2CCCC3)cc1F`, the GI50 [1] was 0.986 µM, the TGI [1] was 4.53 µM and the GI50 [2] was 1.98 µM. It also gave a TGI [2] of 22.8 µM, a GI50 [3] of 1.24 µM and a TGI [3] of 3.42 µM. For the same compound, the GI50 [4] was 1.04 µM, the TGI [4] was 9.54 µM and the GI50 [5] was 1.53 µM. The TGI [5] was 18.5 µM, the GI50 [6] was 1.12 µM and the TGI [6] was 9.1 µM. It also gave a GI50 [7] of 1.38 µM, a TGI [7] of 5.61 µM and a GI50 [8] of 1.67 µM. For the same compound, the TGI [8] was 16.9 µM, the GI50 [9] was 0.686 µM and the TGI [9] was 5.5 µM. For the same compound, the GI50 [10] was 1.38 µM and the TGI [10] was 5.85 µM.
